Results: the supplement of paper PMC10307832

Assays:
Test in all cases: relative viability (nuclei count vs DMSO), 5 days (fraction); higher = more cells survive
Linsitinib + Foretinib = compound: C[C@]1(O)C[C@@H](c2nc(-c3ccc4ccc(-c5ccccc5)nc4c3)c3c(N)nccn32)C1 [Linsitinib] + COc1cc2c(Oc3ccc(NC(=O)C4(C(=O)Nc5ccc(F)cc5)CC4)cc3F)ccnc2cc1OCCCN1CCOCC1 [Foretinib] (partner 0.25 µM)
Procedure, shortened: (§1)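 Values are medians from duplicate plates. Each reflects relative viability, defined as the nuclei count of treated wells over that of vehicle wells. Lung cancer cell lines in 1536-well plates were pin-tool dosed one day after seeding with one drug alone or with a fixed anchor-drug dose plus five library-drug doses (not always all listed) in √10 steps, then fixed, stained and imaged at 4× after 5 days.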

Ispinesib + Pemetrexed = compound: Cc1ccc(C(=O)N(CCCN)[C@@H](c2nc3cc(Cl)ccc3c(=O)n2Cc2ccccc2)C(C)C)cc1 [Ispinesib] + Nc1nc2[nH]cc(CCc3ccc(C(=O)N[C@@H](CCC(=O)O)C(=O)O)cc3)c2c(=O)[nH]1 [Pemetrexed] (partner 0.2 µM)
Procedure, shortened: as §1

Ispinesib + Linsitinib = compound: Cc1ccc(C(=O)N(CCCN)[C@@H](c2nc3cc(Cl)ccc3c(=O)n2Cc2ccccc2)C(C)C)cc1 [Ispinesib] + C[C@]1(O)C[C@@H](c2nc(-c3ccc4ccc(-c5ccccc5)nc4c3)c3c(N)nccn32)C1 [Linsitinib] (partner 1 µM)
Procedure, shortened: as §1

Linsitinib + Palbociclib = compound: C[C@]1(O)C[C@@H](c2nc(-c3ccc4ccc(-c5ccccc5)nc4c3)c3c(N)nccn32)C1 [Linsitinib] + CC(=O)c1c(C)c2cnc(Nc3ccc(N4CCNCC4)cn3)nc2n(C2CCCC2)c1=O [Palbociclib] (partner 0.5 µM)
Procedure, shortened: as §1

Cell Line | relative viability (Linsitinib + Foretinib; first compound 0.01 µM) | relative viability (Linsitinib + Foretinib; first compound 0.03162 µM) | relative viability (Linsitinib + Foretinib; first compound 0.1 µM) | relative viability (Linsitinib + Foretinib; first compound 0.3162 µM) | relative viability (Linsitinib + Foretinib; first compound 1 µM) | relative viability (Ispinesib + Pemetrexed; first compound 0.001 µM) | relative viability (Ispinesib + Pemetrexed; first compound 0.003162 µM) | relative viability (Ispinesib + Pemetrexed; first compound 0.01 µM) | relative viability (Ispinesib + Pemetrexed; first compound 0.03162 µM) | relative viability (Ispinesib + Pemetrexed; first compound 0.1 µM) | relative viability (Ispinesib + Linsitinib; first compound 0.001 µM) | relative viability (Ispinesib + Linsitinib; first compound 0.003162 µM) | relative viability (Ispinesib + Linsitinib; first compound 0.01 µM) | relative viability (Ispinesib + Linsitinib; first compound 0.03162 µM) | relative viability (Ispinesib + Linsitinib; first compound 0.1 µM) | relative viability (Linsitinib + Palbociclib; first compound 0.01 µM) | relative viability (Linsitinib + Palbociclib; first compound 0.03162 µM) | relative viability (Linsitinib + Palbociclib; first compound 0.1 µM) | relative viability (Linsitinib + Palbociclib; first compound 0.3162 µM) | relative viability (Linsitinib + Palbociclib; first compound 1 µM)
201T | 1.19 | 1.15 | 1.07 | 1.2 | 0.82 | 0.308 | 0.334 | 0.328 | 0.32 | 0.264 | 1.08 | 1.06 | 1.06 | 1.01 | 0.988 | 0.357 | 0.371 | 0.374 | 0.364 | 0.374
A549 | 0.97 | 0.953 | 0.999 | 0.695 | 0.875 | – | – | – | – | – | 0.628 | 0.551 | 0.769 | 0.434 | 0.0756 | – | – | – | – | –
A-427 | 1.12 | 1.15 | 1.19 | – | 1.11 | 1.04 | 1.13 | 1.1 | 0.48 | 0.243 | 1.15 | 1.13 | 1.15 | 1.21 | 1.12 | 0.516 | 0.568 | 0.535 | – | 0.494
ABC-1 | 1.23 | 0.924 | 1.05 | 0.747 | 1.76 | – | – | – | – | – | 0.94 | 0.874 | 0.965 | 0.376 | 0.338 | 0.793 | 0.537 | 0.627 | 0.428 | 0.425
BEN | 0.635 | 0.578 | 0.642 | – | 0.753 | 0.826 | 0.953 | 0.797 | 0.471 | 0.278 | 1 | 1.12 | 1.06 | 0.682 | 0.32 | 0.487 | 0.422 | 0.45 | 0.361 | 0.468
CAL-12T | 1.08 | 1.13 | 1.18 | 0.752 | 1.1 | 1.31 | 1.24 | 1.41 | 1.12 | 0.235 | 0.98 | 0.784 | 0.785 | 0.778 | 0.193 | 0.429 | 0.388 | 0.412 | 0.321 | 0.424
COR-L23 | 0.892 | 0.996 | 0.905 | 0.834 | 0.861 | 0.197 | 0.195 | 0.183 | 0.158 | 0.147 | 1.12 | 0.946 | 1 | 0.161 | 0.16 | 0.278 | 0.3 | 0.249 | 0.198 | 0.226
COR-L 105 | 0.969 | 1.03 | 1.08 | 0.956 | 0.908 | 1.09 | 1.11 | 1.24 | 0.794 | 0.5 | 0.985 | 0.993 | 0.814 | 0.492 | 0.26 | 0.38 | 0.403 | 0.437 | 0.373 | 0.358
Calu-6 | 0.826 | 0.768 | 0.837 | 0.799 | 0.726 | – | – | – | – | – | 0.998 | – | 0.712 | 0.297 | 0.133 | – | – | – | – | –
ChaGo-K-1 | 0.853 | 0.903 | 0.85 | 0.762 | 0.882 | 0.248 | 0.274 | 0.26 | 0.256 | 0.154 | – | – | – | – | – | 0.926 | 0.897 | 0.974 | – | 0.978
EBC-1 | 0.115 | 0.109 | 0.0995 | 0.106 | 0.104 | – | – | – | – | – | 0.926 | 1.04 | 1.04 | 0.8 | 0.187 | – | – | – | – | –
EKVX | 0.988 | 0.358 | 0.779 | 0.252 | 0.686 | 0.41 | – | 0.416 | 0.337 | 0.325 | 1.15 | 1.05 | 1.17 | 0.927 | 0.454 | – | 0.408 | 0.39 | 0.288 | 0.316
EMC-BAC-2 | 0.95 | 0.979 | 1.1 | 0.907 | 0.819 | 0.455 | 0.418 | 0.405 | 0.352 | 0.327 | 0.831 | 0.847 | 0.858 | 0.614 | 0.487 | 0.512 | 0.509 | 0.493 | 0.478 | 0.425
EPLC-272H | 0.72 | 0.693 | – | – | 0.656 | 0.31 | 0.327 | 0.193 | 0.265 | 0.227 | 1.17 | 1.53 | 1.48 | 1.05 | 1.06 | 0.337 | 0.351 | 0.327 | – | 0.335
H3255 | 0.796 | 0.907 | 0.944 | 0.682 | 0.976 | 0.575 | 0.604 | 0.515 | 0.525 | 0.39 | 0.919 | 1.19 | 1.06 | 0.785 | 0.292 | 0.309 | 0.341 | 0.313 | 0.321 | 0.299
HARA | 0.91 | 0.938 | 0.758 | – | 0.932 | 0.278 | 0.203 | 0.209 | 0.187 | 0.171 | 0.993 | 0.85 | 1.32 | 1.07 | 0.207 | 0.276 | 0.274 | 0.223 | 0.203 | 0.268
HCC-15 | 1.08 | 1.01 | 1.04 | – | 0.809 | 0.241 | 0.258 | 0.23 | 0.221 | 0.144 | 0.998 | 1.06 | 1.06 | 0.663 | 0.415 | 0.75 | 0.703 | 0.702 | 0.283 | 0.569
HCC-44 | – | – | – | – | – | 0.682 | 0.663 | 0.657 | 0.496 | 0.391 | 0.702 | 0.746 | 0.812 | 0.698 | 0.248 | 0.962 | 0.928 | 0.879 | 0.785 | 0.825
HCC-78 | 0.545 | 0.567 | 0.471 | 0.44 | 0.39 | 0.916 | 0.931 | 0.937 | 0.932 | 0.617 | 0.51 | 0.498 | 0.509 | – | 0.151 | 0.45 | 0.539 | 0.458 | 0.525 | 0.501
